Laboratory results from patent publication US20230020036A1, “TREATMENT OF EPILEPTIC CONDITIONS WITH GABAA RECEPTOR MODULATORS” (NEUROCYCLE THERAPEUTICS, INC., priority 2019, published 2023).
Several values for one entry are separate records, joined by “and”; a condition that tells them apart may be missing. Equal values may be shown once. Entries after “also recorded” stand apart in the source; their conditions may differ.

Tested on: Scn1a+/- heterozygous knockout mice ([129xB]F1.Scn1a+/-), heat-induced seizures
Assay: Hyperthermia-induced seizure study in Scn1a+/- heterozygous knockout mice
Assay type: in vivo, mouse
Set-up: Temp Change: unit not given here
Conditions: for amount of seizures relative to administration of vehicle: Table 10 summary; for performance compared with the clobazam positive control: clobazam 10 mg/kg; for efficacy at preventing heat-induced seizures: summary of the seizure study, FIG. 13
From the text: Reason for selection of species: The Scn1a^+/− knockout mouse ([129xB]F1. Scn1a^+/−) is a model subject of DS with a high translational value.
Between P14 and 16, Scn1a^+/− heterozygous knockout mice are randomly assigned to treatment groups (n=7 males, 7 females/treatment group). The Scn1a^+/− knockout mouse model was chosen because it is an art accepted animal model for epileptic conditions, including for Dravet Syndrome. Treatments are GABAA receptor modulator 1 (“Compound 1” as a phosphate salt at 0.1, 0.3, 1.0 mg/kg), GABAA receptor modulator 2 (“Compound 2” at 3, 10, 30, 100 mg/kg), vehicle, or Clobazam (“CBZ”) (10 mg/kg; positive control).
The GABAA receptor modulators were administered intraperitoneally (i.p.) using a 0.5 or 1-ml plastic syringe fitted with a 27 or 30 gauge 0.5″-long beveled needle.
Animals received 10 mL of formulation per kg of body weight as measured on the day of experiment.
In order to verify the dose concentration, mice were dosed with a test article or control and placed into individual housing cages. A temperature probe was gently inserted into the mouse's rectum and secured by taping the probe's wire to the mouse's tail with the tag end on the mouse's dorsal side. For each group, the insertion of the probe was as follows: • a. For mice administered CBZ, five (5) mins passed before insertion of the probe in order to allow 20-30 min pretreatment time when the state of hyperthermia reached. • b. For mice administered Compound 1, thirty-five (35) mins passed before insertion of the probe in order to allow 50-60 min pretreatment time when the state of hyperthermia is reached. • c. For mice administered […], five (5) mins passed before insertion of the probe in order to allow 20-30 min pretreatment time when the state of hyperthermia reached.
Each mouse was allowed to acclimate to the temperature probe for five (5) minutes before recording the baseline temperature. FIGS. 1-3 depict the starting temperatures of the female mice, the male mice, and the average starting temperatures of all mice prior to inducing the heat-induced seizures.
FIGS. 4-6 depict the final core body temperature of the female mice, the male mice, and the average final core body temperature of all mice after heating. FIGS. 7-9 illustrate the total temperature change for the female mice, the male mice, and average of all mice; while FIGS. 10-12 depict the average temperature change per minute for the female mice, the male mice, and average of all mice. The mouse's body temperature was maintained at 42.5° C. for 3 mins. If no seizure occurred, the mouse was considered seizure-free.

[1] = 3 mg/kg i.p., 30 minute pretreatment, individual animals, female mice
[2] = 3 mg/kg i.p., 30 minute pretreatment, individual animals, male mice
[3] = Compound 2 30 mg/kg, 30 minute pretreatment, individual animals, female mice
[4] = Compound 2 30 mg/kg, 30 minute pretreatment, individual animals, male mice
[5] = Compound 2 100 mg/kg, 30 minute pretreatment, individual animals, female mice
[6] = Compound 2 100 mg/kg, 30 minute pretreatment, individual animals, male mice
[7] = 0.1 mg/kg i.p., 60 minute pretreatment, individual animals, female mice
[8] = 0.1 mg/kg i.p., 60 minute pretreatment, individual animals, male mice
[9] = 0.3 mg/kg i.p., 60 minute pretreatment, individual animals, female mice
[10] = 0.3 mg/kg i.p., 60 minute pretreatment, individual animals, male mice
[11] = Clobazam 10 mg/kg i.p., 30 minute pretreatment, individual animals, female mice
[12] = Clobazam 10 mg/kg i.p., 30 minute pretreatment, individual animals, male mice

C#Cc1ccc2c(c1)C(c1ccccn1)=NCc1c(-c3nc(CC)no3)ncn1-2 [Compound 2]
Total With No Seizure (3 mg/kg i.p., 30 minute pretreatment): 7% | End Temp [1]: 42.6 °C and 41.8 °C and 41.7 °C (2×) and 42.2 °C and 42.4 °C and 41.4 °C | Observations [1]: Seizure free, 3 min hold; also recorded: Tonic-clonic, squeek | End Temp [2]: 41.3 °C (2×) and 41.7 °C and 42.1 °C and 41.8 °C and 42 °C and 42.5 °C | Observations [2]: Tonic-clonic, squeek; also recorded: Tonic-clonic on the onset | prevention of seizures (100 mg/kg dose, n=8): completely preventing seizures in each animal | dose dependence of seizure prevention (3, 10, 30, 100 mg/kg): prevented seizures in a dose-dependent fashion | Total With No Seizure (Compound 2 10 mg/kg i.p., 30 minute pretreatment): 50% | Observations (Compound 2 10 mg/kg i.p., 30 minute pretreatment, individual animals): Tonic-clonic, squeek | End Temp (Compound 2 10 mg/kg i.p., 30 minute pretreatment, individual animals, female mice): 42.7 °C (2×) and 42.8 °C (2×) and 42.6 °C and 42.1 °C and 42.5 °C | End Temp (Compound 2 10 mg/kg i.p., 30 minute pretreatment, individual animals, male mice): 42.5 °C (3×) and 42.8 °C and 42 °C and 40 °C and 42.7 °C | Total With No Seizure (Compound 2 30 mg/kg, 30 minute pretreatment): 73% | End Temp [3]: 42.5 °C and 41.5 °C and 42.8 °C (2×) and 42.7 °C (3×) and 42.6 °C | Observations [3]: seizure free, 3 min hold; also recorded: Tonic-clonic seizure | Temp Change [3]: 9.1 and 5.3 and 6.3 and 6.2 and 7.9 and 7.2 and 6.6 and 7.4 | Temp Change/min [3]: 0.51 and 0.48 (2×) and 0.41 and 0.46 and 0.55 and 0.39 and 0.35 | End Temp [4]: 42.5 °C and 42.8 °C and 42.6 °C and 43 °C and 42.7 °C (2×) and 41.6 °C | Observations [4]: Tonic-clonic, squeek; also recorded: Seizure free, 3 min hold | Temp Change [4]: 7.3 and 6.8 and 7.8 and 7.5 (2×) and 9.6 and 7 | Temp Change/min [4]: 0.66 and 0.49 and 0.41 and 0.54 and 0.53 and 0.50 and 0.63 | Total With No Seizure (Compound 2 100 mg/kg, 30 minute pretreatment): 100% | End Temp [5]: 42.9 °C and 42.7 °C (2×) and 42.5 °C | Observations [5]: Seizure free, 3 min hold | Temp Change [5]: 8.2 and 7.4 and 7.7 and 8.5 | Temp Change/min [5]: 0.59 and 0.53 and 0.33 and 0.50 | End Temp [6]: 42.6 °C (2×) and 42.7 °C and 42.5 °C | Observations [6]: Seizure free, 3 min hold | Temp Change [6]: 7.4 and 7.2 and 9.7 and 7.7 | Temp Change/min [6]: 0.31 and 0.36 and 0.54 and 0.29 | amount of seizures relative to administration of vehicle: reduced the amount of seizures | performance compared with the clobazam positive control: performed at least as well as the clobazam positive control | efficacy at preventing heat-induced seizures: effective at preventing heat-induced seizures | End Temperature (summary, 3 mg/kg (n = 14)): 41.89 °C | Seizure free % (summary, 3 mg/kg (n = 14)): 7% | Temp Change (summary, 3 mg/kg (n = 14)): 6.61 | Temp Change/min (summary, 3 mg/kg (n = 14)): 0.45 | End Temperature (summary, 10 mg/kg (n = 14)): 42.37 °C | Seizure free % (summary, 10 mg/kg (n = 14)): 50% | Temp Change (summary, 10 mg/kg (n = 14)): 7.09 | Temp Change/min (summary, 10 mg/kg (n = 14)): 0.47 | End Temperature (summary, 30 mg/kg (n = 15)): 42.55 °C | Seizure free % (summary, 30 mg/kg (n = 15)): 73% | Temp Change (summary, 30 mg/kg (n = 15)): 7.30 | Temp Change/min (summary, 30 mg/kg (n = 15)): 0.49 | End Temperature (summary, 100 mg/kg (n = 8)): 42.60 °C | Seizure free % (summary, 100 mg/kg (n = 8)): 100% | Temp Change (summary, 100 mg/kg (n = 8)): 8.00 | Temp Change/min (summary, 100 mg/kg (n = 8)): 0.37

CC(C)(O)c1cnn2c(-c3ccc(F)c(-c4c(F)cccc4C#N)c3)cnc2n1 [Compound 1]
Total With No Seizure (0.1 mg/kg i.p., 60 minute pretreatment): 6% | End Temp [7]: 41.9 °C and 41.8 °C and 41.6 °C and 42 °C and 41.7 °C and 42.8 °C and 41.4 °C and 41.2 °C | Observations [7]: Tonic-clonic, squeek; also recorded: Seizure free, 3 min hold | End Temp [8]: 42.6 °C and 41.8 °C and 40.8 °C and 42 °C and 42.1 °C and 41.5 °C and 42.2 °C and 41.6 °C | Observations [8]: Tonic-clonic, seizure; also recorded: Tonic-clonic, squeek | Total With No Seizure (0.3 mg/kg i.p., 60 minute pretreatment): 33% | End Temp [9]: 41.7 °C and 41.4 °C and 42.3 °C (2×) and 42.5 °C and 42.8 °C and 42.1 °C and 42.2 °C and 42.7 °C | Observations [9]: Tobic-clonic, squeek, HLE; also recorded: Seizure free, 3 min hold; also recorded: tonic-clonic, squeek, HLE | End Temp [10]: 41.4 °C and 42.4 °C (2×) and 42.8 °C and 41.9 °C and 42.2 °C and 42.6 °C (2×) and 43 °C | Observations [10]: Tonic,-clonic, squeek; also recorded: Tonic-clonic, squeek; also recorded: Seizure free, 3 min hold | Total With No Seizure (1.0 mg/kg i.p., 60 minute pretreatment): 36% | Observations (1.0 mg/kg i.p., 60 minute pretreatment, individual animals): Tonic-clonic seizure,; also recorded: seizure free, 3 min hold; also recorded: Tonic-clonic seizure; also recorded: Tonic-clonic, Squeek | End Temp (1.0 mg/kg i.p., 60 minute pretreatment, individual animals, female mice): 42.2 °C (2×) and 42.8 °C (2×) and 42.4 °C and 42.5 °C (3×) and 42.3 °C and 42.9 °C and 42.1 °C | End Temp (1.0 mg/kg i.p., 60 minute pretreatment, individual animals, male mice): 41.9 °C and 42.5 °C (2×) and 42.9 °C and 42.3 °C and 42.2 °C and 42.8 °C (2×) and 41.5 °C and 41.3 °C and 42.6 °C | amount of seizures relative to administration of vehicle: reduced the amount of seizures | performance compared with the clobazam positive control: performed at least as well as the clobazam positive control | efficacy at preventing heat-induced seizures: effective at preventing heat-induced seizures | End Temperature (summary, 0.1 mg/kg (n = 16)): 41.81 °C | Seizure free % (summary, 0.1 mg/kg (n = 16)): 6% | Temp Change (summary, 0.1 mg/kg (n = 16)): 6.66 | Temp Change/min (summary, 0.1 mg/kg (n = 16)): 0.52 | End Temperature (summary, 0.3 mg/kg (n = 18)): 42.29 °C | Seizure free % (summary, 0.3 mg/kg (n = 18)): 33% | Temp Change (summary, 0.3 mg/kg (n = 18)): 7.15 | Temp Change/min (summary, 0.3 mg/kg (n = 18)): 0.48 | End Temperature (summary, 1.0 mg/kg (n = 22)): 42.39 °C | Seizure free % (summary, 1.0 mg/kg (n = 22)): 36% | Temp Change (summary, 1.0 mg/kg (n = 22)): 7.05 | Temp Change/min (summary, 1.0 mg/kg (n = 22)): 0.46

CN1C(=O)CC(=O)N(c2ccccc2)c2cc(Cl)ccc21 [Clobazam, reference compound]
Total With No Seizure (Clobazam 10 mg/kg i.p., 30 minute pretreatment): 38% | End Temp [11]: 42.3 °C and 42 °C and 42.2 °C and 42.7 °C (2×) and 42.6 °C (4×) and 42.5 °C (2×) and 42.9 °C | Observations [11]: Tonic-clonic, squeek; also recorded: seizure free, 3 min hold; also recorded: Tonic-clonic on the onset; also recorded: Tonic-clonic, HLE | End Temp [12]: 41.9 °C and 42.6 °C (2×) and 42.5 °C (3×) and 42.9 °C and 42.8 °C and 41.8 °C and 42 °C and 41.7 °C and 42.1 °C | Observations [12]: seizure free, 3 min hold; also recorded: Tonic-clonic seizure; also recorded: Tonic-clonic seizure,; also recorded: Tonic-clonic, squeek; also recorded: Tonic-clonic on the onset | End Temperature (summary, 10 mg/kg (n = 24)): 42.42 °C | Seizure free % (summary, 10 mg/kg (n = 24)): 38% | Temp Change (summary, 10 mg/kg (n = 24)): 7.60 | Temp Change/min (summary, 10 mg/kg (n = 24)): 0.53
